Laboratory results taken from patent US20060148898A1 (priority 2003, published 2006).
“Also recorded” adds a separate entry of the source. Where two headings read alike, the source gives them in different places.

How the values were obtained:
[1] = tested on: male rats of the Wistar-100 line; conditions: rat, in vivo
adult volunteers = conditions: human, in vivo
[2] = tested on: male rats of the Wistar-100 line; conditions: rat, in vivo; remark: listed apart in the source
[3] = tested on: male rats of the Wistar-100 line; conditions: rat, in vivo; remark: listed apart in the source

For `O=S(=O)([O-])CC(S)CS.[Na+]` (stereo not shown) [Unithiol, 2,3-Dimercaptopropane-sulfonate Na], the “Alanine aminotransferase (ALT) activity in liver homogenates” value [1] was “twice lower”, the “activity of enzymes characterizing damage of hepatocyte membranes (ALT, AST)” value [1] was “reliably lower than in the control group” and the “concentration of end products of lipid peroxidation (TBA-positive compounds) in blood plasma” value [1] was “reliably differing from an analogous group without use of Unithiol toward; lowering”. For the same molecule, the “mean content of vitamin E and A in blood plasma” value [1] was “on the level of values in the control group”, the “content of the main endogenous antioxidants (vitamins E, A, SH-groups)” value ([1]; po) was “preserved on the level close to the values in the control group” and the “biochemical values (MDA, vitamins E and A, SH-groups, ALT, AST, triglycerides)” value (adult volunteers) was “did not lead to worsening of the biochemical values; also recorded: restoration of the initial (basic) level of the biochemical values”. The “time after intake at which the subjective perception of withdrawal is removed” value (adult volunteers) was 8 to 10 min, the “concentration of end products of lipid peroxidation (TBA-positive compounds) in blood plasma” value [2] was “reliably differing from an analogous group without use of Unithiol toward; lowering” and the “content of the main endogenous antioxidants (vitamins E, A, SH-groups)” value ([2]; po) was “preserved on the level close to the values in the control group”. The “biochemical parameters of toxic action of ethanol on liver tissue (lipid peroxides, triglycerides, ALT, AST)” value [3] was “oral administration of Unithiol yields essentially better values”.
